PubChem BioAssay (NCI)
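How tested: cells in 96-well plates exposed to compound for 48 hours at five concentrations. TGI denotes the concentration required for complete inhibition of growth.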

What was measured:
Assay in all cases: NCI-60 cell line screen, 48 h
[1] = system: MALME-3M melanoma
[2] = system: MDA-MB-231 breast
[3] = system: SNB-19 CNS
[4] = system: K-562 leukemia
[5] = system: SW-620 colon
[6] = system: OVCAR-5 ovarian
[7] = system: MCF7 breast
[8] = system: HT29 colon
[9] = system: CCRF-CEM leukemia
[10] = system: COLO 205 colon
[11] = system: RPMI-8226 leukemia
[12] = system: SK-OV-3 ovarian
[13] = system: RXF 393 renal
[14] = system: EKVX NSCLC
[15] = system: ACHN renal
[16] = system: BT-549 breast
[17] = system: SK-MEL-2 melanoma
[18] = system: IGROV1 ovarian
[19] = system: MOLT-4 leukemia
[20] = system: TK-10 renal
[21] = system: LOX IMVI melanoma
[22] = system: MDA-MB-435
[23] = system: A549 NSCLC
[24] = system: HOP-62 NSCLC
[25] = system: UO-31 renal
[26] = system: SK-MEL-5 melanoma
[27] = system: NCI-H226 lung
[28] = system: SF-539 CNS
[29] = system: SF-268 CNS
[30] = system: PC-3 prostate
[31] = system: SK-MEL-28 melanoma
[32] = system: OVCAR-8 ovarian
[33] = system: HL-60(TB) leukemia
[34] = system: U251 CNS
[35] = system: CAKI-1 renal
[36] = system: HOP-92 NSCLC
[37] = system: M14 melanoma
[38] = system: SF-295 CNS
[39] = system: OVCAR-4 ovarian
[40] = system: DU-145 prostate
[41] = system: SR leukemia
[42] = system: HCT-15 colon
[43] = system: OVCAR-3 ovarian
[44] = system: NCI/ADR-RES ovarian
[45] = system: T-47D breast
[46] = system: UACC-257 melanoma
[47] = system: HS 578T breast
[48] = system: A498 renal
[49] = system: UACC-62 melanoma
[50] = system: HCT-116 colon
[51] = system: HCC-2998 colon
[52] = system: MDA-N
[53] = system: NCI-H23 lung
[54] = system: KM12 colon
[55] = system: SNB-75 CNS
[56] = system: NCI-H460 lung
[57] = system: 786-0 renal
[58] = system: NCI-H522 lung
[59] = system: SN12C renal

For CCC[C@H](C)[C@H]1NC(=O)[C@@H](NC(=O)[C@@H](CC(C)C)N(C)C(=O)C2CCCN2C(=O)[C@H](C)O)[C@@H](C)OC(=O)[C@H](CC(C)C)N(C)C(=O)[C@@H]2CCCN2C(=O)[C@H](CC(C)C)NC(=O)[C@@H](C)C(=O)[C@H](C(C)C)OC(=O)C[C@@H]1O (stereo not given in full), the TGI [1] was < 2.5 nM, the TGI [2] was 8.55 nM and the TGI [3] was 60 nM. For the same molecule, the TGI [4] was 3260 nM, the TGI [5] was 5.24 nM and the TGI [6] was 34.6 nM. The TGI [7] was 250 nM, the TGI [8] was 10.2 nM and the TGI [9] was 141 nM. The TGI [10] was < 2.5 nM, the TGI [11] was 76.8 nM and the TGI [12] was 140 nM. It also gave a TGI [13] of 16 nM, a TGI [14] of 339 nM and a TGI [15] of 68.9 nM. The TGI [16] was 25 nM, the TGI [17] was 4.68 nM and the TGI [18] was 25.6 nM. The TGI [19] was 1580 nM, the TGI [20] was 94.6 nM and the TGI [21] was 3.09 nM. It also gave a TGI [22] of 5.19 nM, a TGI [23] of 131 nM and a TGI [24] of 8.42 nM. It also gave a TGI [25] of 128 nM, a TGI [26] of 3.81 nM and a TGI [27] of 62.2 nM. It also gave a TGI [28] of 10.2 nM, a TGI [29] of 30.3 nM and a TGI [30] of 16.9 nM. The TGI [31] was < 2.5 nM, the TGI [32] was 48.4 nM and the TGI [33] was 108 nM. For the same molecule, the TGI [34] was < 2.5 nM, the TGI [35] was 1540 nM and the TGI [36] was 9.3 nM. The TGI [37] was 84.8 nM, the TGI [38] was 53.6 nM and the TGI [39] was 11.7 nM. For the same molecule, the TGI [40] was 14.3 nM, the TGI [41] was 42.2 nM and the TGI [42] was 1440 nM. The TGI [43] was 11.7 nM, the TGI [44] was 2620 nM and the TGI [45] was 250 nM. The TGI [46] was 20.5 nM, the TGI [47] was 1040 nM and the TGI [48] was 37.6 nM. The TGI [49] was 2.7 nM, the TGI [50] was 3.56 nM and the TGI [51] was 5.51 nM. For the same molecule, the TGI [52] was 20.5 nM, the TGI [53] was 4.47 nM and the TGI [54] was 1270 nM. For the same molecule, the TGI [55] was 24.6 nM, the TGI [56] was 28.9 nM and the TGI [57] was 15.7 nM. For the same molecule, the TGI [58] was 6.09 nM.

In the case of O=C1C(C=NCCc2c[nH]c3ccccc23)C(C(F)(F)F)=NN1c1nc2ccccc2s1 (stereo not given), the TGI [1] is reported as > 100000 nM, the TGI [2] is reported as > 100000 nM and the TGI [3] is reported as > 100000 nM. The TGI [4] was > 100000 nM, the TGI [5] was > 100000 nM and the TGI [6] was 78800 nM. The TGI [7] was 57200 nM, the TGI [8] was 88000 nM and the TGI [9] was 57800 nM. For the same molecule, the TGI [10] was 34000 nM, the TGI [11] was 62500 nM and the TGI [12] was 76200 nM. The TGI [13] was 48500 nM, the TGI [14] was 62900 nM and the TGI [15] was 83500 nM. The TGI [16] was 66300 nM, the TGI [17] was 77700 nM and the TGI [18] was > 100000 nM. The TGI [19] was 60400 nM, the TGI [20] was 62100 nM and the TGI [21] was 78600 nM. The TGI [22] was 71900 nM, the TGI [23] was > 100000 nM and the TGI [24] was 46900 nM. For the same molecule, the TGI [25] was > 100000 nM, the TGI [26] was 37100 nM and the TGI [27] was 68000 nM. The TGI [28] was 86400 nM, the TGI [29] was > 100000 nM and the TGI [30] was 97800 nM. For the same molecule, the TGI [31] was > 100000 nM, the TGI [32] was > 100000 nM and the TGI [33] was 47800 nM. For the same molecule, the TGI [34] was > 100000 nM, the TGI [35] was > 100000 nM and the TGI [36] was 48500 nM. The TGI [37] was > 100000 nM, the TGI [38] was 66500 nM and the TGI [39] was 63000 nM. The TGI [40] was 79500 nM, the TGI [41] was 93900 nM and the TGI [42] was > 100000 nM. The TGI [43] was 50100 nM, the TGI [44] was 78000 nM and the TGI [59] was > 100000 nM. For the same molecule, the TGI [45] was 25500 nM, the TGI [46] was 41900 nM and the TGI [47] was > 100000 nM. For the same molecule, the TGI [48] was 42100 nM, the TGI [49] was 43600 nM and the TGI [50] was > 100000 nM. For the same molecule, the TGI [52] was > 100000 nM, the TGI [53] was > 100000 nM and the TGI [55] was > 100000 nM. For the same molecule, the TGI [56] was 62400 nM, the TGI [57] was > 100000 nM and the TGI [58] was 43600 nM.
